Source: patent US20250295790A1, “LECTIN-TARGETING CONJUGATES” (Helmholtz-Zentrum für Infektionsforschung GmbH, priority 2021, published 2025)
Converted amounts (≈) assume the structure as drawn. “Also recorded” adds a separate entry of the source. Like-named read-outs stand apart in the source and are kept apart here.

Columns and labels:
[1] = Prodrug activation assay in human blood plasma spiked with P. aeruginosa PA14 culture supernatant; assay type: in vitro ADME, Pseudomonas aeruginosa PA14; conditions: 50% human blood plasma spiked with 10% P. aeruginosa culture supernatant, within 3 h
Description: In the prodrug activation assay, the bacterial strain Pseudomonas aeruginosa PA14 wt (DSM 19882) was used. The strain was obtained from the German Collection of Microorganisms and Cell Cultures (DSMZ).
(§1) P. aeruginosa PA14 was streaked on LB-agar plates (1% agar) from glycerol stocks and incubated at 37° C. overnight. 2-5 colonies were picked and dispersed in 10 mL LB (10 g/L trypton, 10 g/L NaCl, 5 g/L yeast extracts). This dispersion was incubated overnight at 37° C., 180 rpm under high humidity. The culture was centrifuged (4000 ref, room temperature, 10 min) and the supernatant was filtered (0.22 m pore size). […]
(§2) A 1 mM solution of the studied compound was prepared in PBS (150 mM NaCl, 2.6 mM KCl, 1.4 mM KH2PO4, 10 mM Na2HPO4, pH 7.4) with 20% DMSO. 50 μL of this solution was diluted in 950 μL matrix or human plasma (spiked with 10% LB) on ice. After brief vortex, 100 μL were immediately treated with 100 μL ice-cold MeCN (spiked with […] diphenhydramine as internal standard). The rest of the solution was incubated at 37° C. and 500 rpm in an eppendorf thermomixer. At various time points (30, 60, 120, 180 min), 100 L sample were taken and treated as described above. […] The AUC of the parent drug and its cleavage products and the internal standard was quantified using Compass QuantAnalysis quantification software. The relative AUC was calculated by AUC (compound)/AUC(ISTD). Procaine was used as a positive control as it readily degrades in human plasma.

LecA [2] = target: T1, LecA (Pseudomonas aeruginosa, UniProt Q05097); experiment: Competitive binding assay based on fluorescence polarization with LecA
T1 construct: made in house
T1 sequence (Q05097 whole entry): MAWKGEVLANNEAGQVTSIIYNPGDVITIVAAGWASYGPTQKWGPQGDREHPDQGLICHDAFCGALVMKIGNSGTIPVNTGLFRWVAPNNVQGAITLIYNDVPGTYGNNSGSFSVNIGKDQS
Description: LecA (according to Joachim et al.): A serial dilution of the test compounds was prepared in TBS/Ca (8.0 g/L NaCl, 2.4 g/L Tris, 0.19 g/L KCl, 0.15 g/L CaCl2·2 H2O), with 30% DMSO as co-solvent. […] The measured intensities were reduced by the values of only LecA in TBS/Ca and fluorescence polarization was calculated. The data was analysed with the MARS Data Analysis Software (BMG Labtech GmbH, Germany) and fitted according to the four-parameter variable slope model. Bottom and top plateaus were fixed according to the control compounds in each assay ((p-nitrophenyl)-p-D-galactoside) and the data was re-analysed with these values fixed. A minimum of three independent measurements on three plates was performed for each inhibitor.
Averages and standard deviations were calculated from at least three independent experiments.

P. aeruginosa PA14 = experiment: Antibiotic susceptibility (MIC assay, broth microdilution); assay type: cell-based, Pseudomonas aeruginosa PA14
Description: Bacterial strains were streaked on LB-agar plates (1% agar) from glycerol stocks and incubated at 37° C. overnight. Colonies were picked from plate and dispersed in fresh MiGler-Hinton broth II (MHB II) to yield an OD600 of 0.08-0.13. This dispersion was diluted 1:100 in fresh MHB II, which was then used for the assay to achieve a final inoculum of 5×10^5 CFU/mL. 50 μL inoculum was mixed with 50 μL of the serial dilution in the corresponding well of the 96-well plate.
The different matrices were prepared under sterile conditions: (i) 5 mL human plasma and 1 mL sterile filtrate from an P. aeruginosa PA14 overnight culture in LB were mixed with 4 mL PBS; (ii) 1 mL sterile filtrate from an P. aeruginosa PA14 overnight culture was diluted in 9 mL PBS; (iii) PBS only and (iv) 5 mL human plasma and 1 mL LB were mixed with 4 mL PBS. 6 L of each compound dilution series was diluted in 115 L matrix (˜-1:20 dilution) in a 96-well format at time point T=−3 h or T=−10 min.
The plates prepared at T=−3 h were sealed with gas-permeable foil and incubated at 37° C. in a humid incubator. The other plates were kept at room temperature. At T=0 h, 50 µL of each well was mixed with 50 μL incoculum (as described above) in double-concentrated MHBII in a sterile 96-well plate.
The plates were sealed with gas-permeable foil and incubated at 37° C. for 18-20 h in a humid incubator. Growth inhibition was assessed by visual inspection and given MIC values are the lowest concentration of antibiotic at which there was no visible growth.

[3] = Stability of conjugates in human blood plasma spiked with LB; assay type: in vitro ADME; conditions: 50% human blood plasma spiked with 10% LB, within three hours
Description: as §2

[4] = Cleavage / stability in PA14-filtrate without human blood plasma; assay type: in vitro ADME, Pseudomonas aeruginosa PA14; conditions: up to 24 h
Description: as §1, §2

LecA [5] = target: T1, LecA; experiment: Isothermal titration calorimetry with LecA; assay type: binding
Description: Isothermal titration calorimetry was performed on an iTC200 (Malvern Panalytical) and the data were analyzed using Microcal Origin software (Malvern Panalytical). LecA in the cell was titrated with ligand in TBS/Ca^2+ buffer supplemented with 5% DMSO at 25° C. Steep titration slopes were the result of high amount of protein present and the high binding affinity of the ligand (high ‘value of c’).
Isothermal titration calorimetry was performed on an iTC200 (Malvern Panalytical) and the data were analyzed using Microcal Origin software (Malvern Panalytical).

LecB PAO1 = LecB PAO1 (Pseudomonas aeruginosa, UniProt Q9HYN5); assay type: binding; conditions: target LecB PAO1; for Ki: calculated as Ki from IC50, read-out: Ki ± s.d.
Sequence of LecB PAO1 (Q9HYN5 entry or part of it): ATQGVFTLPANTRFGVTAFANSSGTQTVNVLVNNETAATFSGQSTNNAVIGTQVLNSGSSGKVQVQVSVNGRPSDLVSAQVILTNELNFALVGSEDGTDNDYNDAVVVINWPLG
Description: LecB (LecB PAO1 according to Hauck et al. and LecB PA14 according to Sommer et al.): A serial dilution of the test compounds was prepared in TBS/Ca, with 20% DMSO as cosolvent. […] Fluorescence was measured and analysed as for LecA. Bottom and top plateaus were fixed according to the control compound in each assay (1-fucose) and the data was re-analysed with these values fixed. A minimum of three independent measurements on three plates was performed for each inhibitor.

LecB PA14 = LecB PA14 (Pseudomonas aeruginosa, UniProt A0A0H2ZE85); assay type: binding; conditions: target LecB PA14
Sequence of LecB PA14 (A0A0H2ZE85 entry or part of it): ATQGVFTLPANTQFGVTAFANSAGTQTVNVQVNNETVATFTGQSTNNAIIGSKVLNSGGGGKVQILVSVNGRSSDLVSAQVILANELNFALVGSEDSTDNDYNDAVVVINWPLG
Description: LecB (LecB PAO1 according to Hauck et al. and LecB PA14 according to Sommer et al.): A serial dilution of the test compounds was prepared in TBS/Ca, with 20% DMSO as cosolvent. A concentrated solution of LecB PAO1 or PA14 was diluted in TBS/Ca together with the fluorescent reporter ligand (N-(fluorescein-5-yl)-N′-(α-l-fucopyranosyl ethylen)-thiocarbamide) to yield concentrations of 300 nM and 20 nM, respectively. 10 μL of this mix was added to 10 μL serial dilutions of the test compounds in a black 384-well microtiter plates (Greiner Bio-One, Germany, cat. no. 781900) in triplicates. After centrifugation (2680 ref, 1 min, room temperature), the reactions were incubated for 4-8 h at room temperature in a humidity chamber. Fluorescence was measured and analysed as for LecA. Bottom and top plateaus were fixed according to the control compound in each assay (1-fucose) and the data was re-analysed with these values fixed. A minimum of three independent measurements on three plates was performed for each inhibitor.

[6] = target LecA, calculated as Ki from IC50, read-out: Ki ± s.d.
[7] = target LecA, read-out: IC50 ± s.d.
[8] = Matrix 1: PBS, pre-incubation 3 h
[9] = Matrix 1: PBS, pre-incubation <10 min
[10] = Matrix 2: 50% human blood plasma + 10% P. aeruginosa culture supernatant in PBS, pre-incubation 3 h
[11] = Matrix 2: 50% human blood plasma + 10% P. aeruginosa culture supernatant in PBS, pre-incubation <10 min
[12] = Matrix 3: 10% P. aeruginosa culture supernatant in PBS, pre-incubation 3 h
[13] = Matrix 3: 10% P. aeruginosa culture supernatant in PBS, pre-incubation <10 min
[14] = Matrix 4: 50% human blood plasma + 10% LB in PBS, pre-incubation <10 min
[15] = Matrix 4: 50% human blood plasma + 10% LB in PBS, pre-incubation 3 h

## CC(C)CC(NC(=O)CNC(=O)C(C)NC(=O)c1ccc(SC2OC(CO)C(O)C(O)C2O)cc1)C(=O)NC(C)C(=O)NCC1CCN(c2cc3c(cc2F)c(=O)c(C(=O)O)cn3C2CC2)C1 (stereo not shown) [Compound 48]
[1]
  release of antibiotic cargo: release their antibiotic cargo; also recorded: released a significant amount of their antibiotic cargo; also recorded: efficiently released their antibiotic cargo
LecA [2]; [6]
  Ki: 11.2 ± 0.73 µM
LecA [2]; [7]
  IC50: 28 ± 1.61 µM
P. aeruginosa PA14; [8]
  MIC: >25 µM
P. aeruginosa PA14; [9]
  MIC: >25 µM
P. aeruginosa PA14; [10]
  MIC: 1.56 µM
P. aeruginosa PA14; [11]
  MIC: 3.13 to 12.5 µM
P. aeruginosa PA14; [12]
  MIC: 1.56 to 3.13 µM
P. aeruginosa PA14; [13]
  MIC: 1.56 to 3.13 µM
P. aeruginosa PA14; [14]
  MIC: >25 µM
[3]
  release of antibiotic cargo: no significant release of their antibiotic cargo

## O=C(O)c1cn(C2CC2)c2cc(N3CCNCC3)c(F)cc2c1=O [Compound 1, Ciprofloxacin, reference compound]
P. aeruginosa PA14; [10]
  MIC: 0.156 to 0.25 µM
P. aeruginosa PA14; [11]
  MIC: 0.25 to 0.313 µM
P. aeruginosa PA14; [15]
  MIC: 0.156 to 0.313 µM
P. aeruginosa PA14; [14]
  MIC: 0.156 to 0.313 µM

## CC(C)C[C@H](N)C(=O)N[C@@H](C)C(=O)N1CCN(c2cc3c(cc2F)c(=O)c(C(=O)O)cn3C2CC2)CC1 [Compound 19, Leu-Ala-ciprofloxacin-conjugate]
[4]
  release of free drug from dipeptide-conjugates: very slow; also recorded: only slowly released their antibiotic cargo

## NC[C@@H]1CCN(c2nc3c(cc2F)c(=O)c(C(=O)O)cn3C2CC2)C1 [Compound 3, (S)-7-(3-(aminomethyl)-1-pyrrolidinyl)-1-cyclopropyl-6-fluoro-1,4-dihydro-4-oxo-1,8-naphthyridine-3-carboxylic acid, reference compound]
P. aeruginosa PA14; Pseudomonas aeruginosa, PA14, read-out: MIC (parent drug)
  MIC: 0.29 to 1.45 µM (≈ 0.1 to 0.502 µg/mL)

## O=[N+]([O-])c1ccc(S[C@@H]2O[C@H](CO)[C@H](O)[C@H](O)[C@H]2O)cc1 [pNP-β-D-Gal, p-nitrophenyl-β-thio-galactoside, reference compound]
LecA [2]
  IC50: 61.9 ± 0.6 µM
  Ki: 26.9 ± 0.25 µM

## CC(C)C[C@H](NC(=O)CNC(=O)[C@H](C)NC(=O)CCCCCn1cc(CCN(Cc2ccc(NC(=O)CCc3ccc(O[C@@H]4OC(CO)[C@H](O)C(O)C4O)cc3)cc2)Cc2ccc(NC(=O)CCc3ccc(O[C@@H]4OC(CO)[C@H](O)C(O)C4O)cc3)cc2)nn1)C(=O)N[C@@H](C)C(=O)N[C@H]1CCN(c2cc3c(cc2F)c(=O)c(C(=O)O)cn3C2CC2)C1 (stereo partly shown) [Compound 68]
LecA [5]
  Kd: 0.036 ± 0.048 µM

## CC(C)C[C@H](NC(=O)CNC(=O)[C@H](C)NC(=O)c1ccc(S[C@@H]2O[C@H](CO)[C@H](O)[C@H](O)[C@H]2O)cc1)C(=O)N[C@@H](C)C(=O)N1CCN(c2cc3c(cc2F)c(=O)c(C(=O)O)cn3C2CC2)CC1 [Compound 24]
[1]
  release of antibiotic cargo: do not release ciprofloxacin; also recorded: degradation stopped at the stage of the secondary amide Ala-ciprofloxacin
LecA [2]; [6]
  Ki: 12.9 ± 1.12 µM
LecA [2]; [7]
  IC50: 31.7 ± 2.46 µM
P. aeruginosa PA14; [8]
  MIC: >25 µM
P. aeruginosa PA14; [9]
  MIC: >25 µM
P. aeruginosa PA14; [10]
  MIC: ≥25 µM
P. aeruginosa PA14; [12]
  MIC: ≥25 µM
P. aeruginosa PA14; [13]
  MIC: ≥25 µM
P. aeruginosa PA14; [15]
  MIC: ≥25 µM
P. aeruginosa PA14; [14]
  MIC: ≥25 µM
[3]
  release of antibiotic cargo: no significant release of their antibiotic cargo

## CC(C)CC(NC(=O)CNC(=O)C(C)NC(=O)c1ccc(S(=O)(=O)NCC2OC(C)C(O)C(O)C2O)cc1)C(=O)NC(C)C(=O)NCC1CCN(c2cc3c(cc2F)c(=O)c(C(=O)O)cn3C2CC2)C1 (stereo not shown) [Compound 49]
[1]
  release of antibiotic cargo: release their antibiotic cargo; also recorded: released a significant amount of their antibiotic cargo; also recorded: efficiently released their antibiotic cargo
P. aeruginosa PA14; [8]
  MIC: >25 µM
P. aeruginosa PA14; [9]
  MIC: >25 µM
P. aeruginosa PA14; [10]
  MIC: 1.56 to 3.13 µM
P. aeruginosa PA14; [11]
  MIC: 3.13 to 6.25 µM
P. aeruginosa PA14; Matrix 3, <10 min pre-incubation (text b309)
  MIC: 3.13 µM (≈ 3.13 µg/mL)
P. aeruginosa PA14; [12]
  MIC: 1.56 to 6.25 µM
P. aeruginosa PA14; [13]
  MIC: 3.13 to 6.25 µM
P. aeruginosa PA14; [14]
  MIC: ≥25 µM
LecB PAO1
  IC50: 4.29 ± 2.99 µM
  IC50 ± s.d.: one-digit micromolar range
  Ki: 1.75 ± 1.4 µM
[3]
  release of antibiotic cargo: no significant release of their antibiotic cargo

## CC(C)C[C@H](NC(=O)CNC(=O)[C@H](C)NC(=O)c1ccc(S(=O)(=O)NC[C@H]2O[C@@H](C)[C@@H](O)[C@@H](O)[C@@H]2O)cc1)C(=O)N[C@@H](C)C(=O)N1CCN(c2cc3c(cc2F)c(=O)c(C(=O)O)cn3C2CC2)CC1 [Compound 25]
LecB PA14
  IC50: 1 ± 0.32 µM
LecB PA14; calculated as Ki from IC50, read-out: Ki ± s.d.
  Ki: 0.36 ± 0.12 µM
[1]
  release of antibiotic cargo: do not release ciprofloxacin; also recorded: degradation stopped at the stage of the secondary amide Ala-ciprofloxacin
P. aeruginosa PA14; [8]
  MIC: >25 µM
P. aeruginosa PA14; [9]
  MIC: >25 µM
P. aeruginosa PA14; [10]
  MIC: ≥25 µM
P. aeruginosa PA14; [12]
  MIC: ≥25 µM
P. aeruginosa PA14; [13]
  MIC: ≥25 µM
P. aeruginosa PA14; [15]
  MIC: ≥25 µM
P. aeruginosa PA14; [14]
  MIC: ≥25 µM
LecB PAO1
  IC50: 4.63 ± 1.99 µM
  IC50 ± s.d.: one-digit micromolar range
  Ki: 1.92 ± 0.93 µM
[3]
  release of antibiotic cargo: no significant release of their antibiotic cargo
